# Test results reported in patent US20250049680A1, “COMPOSITIONS AND METHODS FOR TREATING DENTIN CARIES” (Rutgers, The State University of New Jersey, priority 2023, published 2025).
# Entries after “also recorded” stand apart in the source; their conditions may differ. Marks after values point to notes of the source that are not given here.
# Legend:
# [1] = SEM-EDS color dot map, intensity of the metal in dentin; parameters: species or system human; conditions: for Unit of Intensity: EDS dot map at 1000x, 0 to 255 scale, mean ± SD; for color intensity: pilot study, mean and standard deviation
# Method: (§1) The column was further developed with 150 mL of one of five metal chloride solutions (0.1 mol/L AA2P salts of Mg, Zn, Mn, Sr, and Ba) to obtain a fraction containing new cationic L-ascorbic acid 2 phosphates with Mg, Zn, Mn, Sr, or Ba (FIG. 2). The prepared dentin specimens were randomly divided into six groups according to the solution used. The canal of each section was covered with an adhesive wax at the lower surface of the dentin specimen. Dentin specimens were then irrigated with one of five intervening solutions (AA2P salts of Mg (0.18 mM), Zn (5.3 μM), Mn (2.2×10^-8 M), Sr (1.8 μM), and Ba (1.9 μM)) for five minutes, with the saline solution used as the control group. The root canals were then flushed with 10 mL of distilled water immediately after each treatment to remove excess solution.
# Three specimens from each group were examined by SEM-EDS mode to observe the precipitation of metallic components on the dentin surface. All specimens were sectioned at a depth of 500 μm (exposure surface to fortifying solutions) using a diamond-coated disk under water cooling. The specimens' surfaces were then polished and sputter-coated with 10 nm gold and observed under an SEM. An EDS color dot map analysis was performed for each specimen at 1000× to evaluate the distribution of trace elements. The intensity of Mg, Zn, Mn, Sr, and Ba was measured using ImageJ software. The color maps were converted to binary, and their mean color intensity (0 to 255 scale) was recorded as a unit of intensity (UI).
# [2] = Solubility evaluation: weight loss of fortified dentin in butyric acid; parameters: species or system human; conditions: for Solubility (weight loss): 0.1 M butyric acid pH 4.4, 24 h, 37 C, mean ± SD; for weight loss: pilot study, mean and standard deviation
# Method: as §1, with “solution. […]” for “solution.”
# Fortified dentin specimens were completely immersed in 30 ml of 0.1 M butyric acid buffered with synthetic tissue fluid (pH 4.4) for 24 hours at 37 degrees C. and 100% relative humidity. After incubation, the specimens were removed from the acidic solutions, rinsed with distilled water to remove any residual acid, and dried. The weight of the dentin slices was measured by a digital microbalance before and after immersion into butyric acid, and the difference in weight provided information on dentin solubility.
# [3] = Surface microhardness of fortified dentin specimens after pH cycling; parameters: species or system human; conditions: for microhardness, rank among all the groups: in words
# Method: as §1
# (§2) Fortified dentin specimens were subjected to a pH cycling procedure with repeated sequences of de/remineralization. Artificial caries were formed in the dentin specimens by a 1-hour immersion in 2.5 mL of demineralizing solution (1.5 mM CaCl2), 0.9 mM KH2PO4, 50 mM acetate buffer, pH 4.8). All lesions were then immersed in 2.5 mL of remineralizing solution (1.5 mM CaCl2, 0.9 mM KH2PO4, 20 mM HEPES [4-(2-hydroxyethyl)-1-piperazineethanesulfonic acid], pH 7.0) for 23 hours. During each solution change, the specimens were rinsed with deionized water for 10 seconds. The pH cycling process was performed at 37 degrees Celsius for three days.
# A Micro Met 5100 durometer microhardness tester was used to measure the hardness of the fortified dentin specimens after exposure to a caries inducing environment. Each dentin specimen was further divided into two sections. Three separate indentations were made in each section at depths of 100 μm and 500 μm from the pulp-dentin interface using a 300-g load with a dwell time of 20 seconds for each measurement. The indentations were then evaluated under an optical microscope, and the average length of their two diagonal lengths was used to determine the hardness. The average microhardness value of the indentations' results was considered representative of each depth in each specimen.
# [4] = Diametral tensile strength (DTS) of fortified dentin specimens after pH cycling; parameters: species or system human; conditions: for Diametral tensile strength: 5 min irrigation, 3-day pH cycling, mean ± SD; for DTS compared with the control group: in words; for DTS: pilot study, mean and standard deviation
# Method: as §1, §2
# The cylindrical specimens were positioned on a customized loading fixture to ensure that the 1.00 mm diameter loading pin aligned with the center axis of the dentin cylinder. Additionally, flat platens were used at both ends of the specimens to further ensure alignment with the testing surface. The specimens were then loaded horizontally into a universal testing machine, receiving a uniaxial load perpendicular to their long axes and parallel to the dentinal tubule orientation. A 1.00 mm diameter stainless steel plunger was used to apply downward pressure on the dentin surface at 1.0 mm/min crosshead speed. The maximal load applied to the plug at the time of dislodgement was recorded in Newtons, and the DTS was calculated using the formula
# where F is the force in Newtons, D is the diameter of the cylinder, and h is the height in mm.
# [5] = Compressive strength of fortified dentin specimens after pH cycling; parameters: species or system human; conditions: for Compressive strength: 5 min irrigation, 3-day pH cycling, mean ± SD
# Method: as §1, §2
# The procedure for compressive strength testing was the same as for DTS testing except for the orientation of the specimens in the universal testing machine. The loads were applied uniaxially, parallel to the long axes of the specimens, and perpendicular to the dentinal tubule orientation until the specimens fractured. To calculate the compressive strength (MPa), the failure load (N) was divided by the area of the specimen in contact with the load
# [6] = pH cycling model of artificial dentin caries; parameters: species or system human; conditions: in words
# Method: as §2
# [7] = Residual stress of treated dentin; conditions: 5 min treatment with AA2P salts
# Method: After establishing that inorganic trace minerals (IoTM) were dysregulated in dentin, Applicant aimed to examine if extrinsic supplementation could enhance dentinal mechanical properties. Specimens were treated with L-ascorbic acid 2-phosphate (AA2P) salts of IoTM as a solute carrier for the elements for 5 minutes. The following findings were observed, as described below.
# Cationic substitution may lead to changes in residual stress. Stress magnitude and distribution by can be measured using XRD (Mn X-ray source, 1 mm aperture) as well as by slitting crack compliance, a destructive mechanical strain release technique, using whole dentin disk samples. In the slitting method, a rectangular sample with a strain gauge applied to the back side will be wired to the electrical discharge machine to cut through a sample to measure strain relief. Finite element analysis can be used to create the stress profile through the depth of a sample. However, the technique's accuracy is limited at the surface. In contrast, XRD is best for surface measurements with very high accuracy. Data can be acquired using a sine-squared psi method to indicate residual stress, modulus, and Poisson ratio. […] Pit depths can be measured using a drop gauge. […] The residual stress in the surface and sub-surface of dentin apatite (as deep as […]) can be determined.
# [8] = 100 and 500 μm depths combined, N=20
compound,measurement,setting,value
O=C1O[C@H]([C@@H](O)CO)C([O-])=C1OP(=O)([O-])[O-].O=C1O[C@H]([C@@H](O)CO)C([O-])=C1OP(=O)([O-])[O-].[Mn+2].[Mn+2].[Mn+2] [Mn],Unit of Intensity,[1]; 500 μm depth,6.57 ± 0.95 ^b Ui
same,color intensity,[1],6.1±0.71
same,Solubility (weight loss),[2],16.69 ± 3.97 ^a %
same,weight loss,[2],16.48±4.55%
same,"Microhardness, Mean","[3]; 100 μM depth, N=10",40.60 kgf/mm^2
same,"Microhardness, Mean","[3]; 500 μM depth, N=10",58.80 kgf/mm^2
same,"Microhardness, Mean",[3]; [8],49.70 kgf/mm^2
same,Diametral tensile strength,[4],56.07 ± 9.39 ^b Mpa
same,DTS compared with the control group,[4],significantly higher DTS than the control group
same,DTS,[4],55.80±11.56 Mpa
same,Compressive strength,[5],148.03 ± 9.82 ^b Mpa
O=C1O[C@H]([C@@H](O)CO)C([O-])=C1OP(=O)([O-])[O-].O=C1O[C@H]([C@@H](O)CO)C([O-])=C1OP(=O)([O-])[O-].[Ba+2].[Ba+2].[Ba+2] [Ba],Unit of Intensity,[1]; 500 μm depth,5.57 ± 0.95 ^b Ui
same,color intensity,[1],5.55±1.34
same,protection against artificial caries lesions,[6],protected the dentin lesions
same,Solubility (weight loss),[2],19.03 ± 2.99 ^a %
same,weight loss,[2],18.96±3.44%
same,"Microhardness, Mean","[3]; 100 μM depth, N=10",45.00 kgf/mm^2
same,"Microhardness, Mean","[3]; 500 μM depth, N=10",60.00 kgf/mm^2
same,"Microhardness, Mean",[3]; [8],52.50 kgf/mm^2
same,Diametral tensile strength,[4],61.56 ± 3.55 ^b Mpa
same,DTS compared with the control group,[4],significantly higher DTS than the control group
same,DTS,[4],61.96±4.47 Mpa
same,Compressive strength,[5],157.96 ± 18.22 ^bc Mpa
O=C1O[C@H]([C@@H](O)CO)C([O-])=C1OP(=O)([O-])[O-].O=C1O[C@H]([C@@H](O)CO)C([O-])=C1OP(=O)([O-])[O-].[Zn+2].[Zn+2].[Zn+2] [Zn],Unit of Intensity,[1]; 500 μm depth,7.1 ± 1.04 ^b Ui
same,color intensity,[1],7.35±1.34
same,protection against artificial caries lesions,[6],protected the dentin lesions
same,Solubility (weight loss),[2],12.88 ± 3.39 ^a %
same,weight loss,[2],12.55±3.82%
same,"Microhardness, Mean","[3]; 100 μM depth, N=10",40.30 kgf/mm^2
same,"Microhardness, Mean","[3]; 500 μM depth, N=10",56.30 kgf/mm^2
same,"Microhardness, Mean",[3]; [8],48.30 kgf/mm^2
same,Diametral tensile strength,[4],54.97 ± 10.12 ^b Mpa
same,DTS compared with the control group,[4],significantly higher DTS than the control group
same,DTS,[4],53.98±9.94 Mpa
same,kind of residual stress generated,[7],tensile residual stress
same,Compressive strength,[5],152.40 ± 15.07 ^b Mpa
O=C1O[C@H]([C@@H](O)CO)C([O-])=C1OP(=O)([O-])[O-].O=C1O[C@H]([C@@H](O)CO)C([O-])=C1OP(=O)([O-])[O-].[Mg+2].[Mg+2].[Mg+2] [Mg],Unit of Intensity,[1]; 500 μm depth,9.76 ± 1.52 ^a Ui
same,"intensity / penetration, rank among all the groups","[1]; in words, 500 μm depth",highest intensity; also recorded: highest penetration
same,color intensity,[1],9.9±2.12
same,Solubility (weight loss),[2],12.73 ± 4.92 ^a %
same,weight loss,[2],12.61±5.67%
same,"Microhardness, Mean","[3]; 100 μM depth, N=10",38.10 kgf/mm^2
same,"Microhardness, Mean","[3]; 500 μM depth, N=10",57.20 kgf/mm^2
same,"Microhardness, Mean",[3]; [8],47.65 kgf/mm^2
same,Diametral tensile strength,[4],56.93 ± 11.93 ^b Mpa
same,DTS compared with the control group,[4],significantly higher DTS than the control group
same,DTS,[4],57.60±15.21 Mpa
same,Compressive strength,[5],148.97 ± 6.89 ^b Mpa
O=C1O[C@H]([C@@H](O)CO)C([O-])=C1OP(=O)([O-])[O-].O=C1O[C@H]([C@@H](O)CO)C([O-])=C1OP(=O)([O-])[O-].[Sr+2].[Sr+2].[Sr+2] [Sr],Unit of Intensity,[1]; 500 μm depth,6.03 ± 0.67 ^b Ui
same,color intensity,[1],6.2±0.85
same,Solubility (weight loss),[2],18.53 ± 3.74 ^a %
same,weight loss,[2],18.16±4.21%
same,"Microhardness, Mean","[3]; 100 μM depth, N=10",47.60 kgf/mm^2
same,"Microhardness, Mean","[3]; 500 μM depth, N=10",59.10 kgf/mm^2
same,"Microhardness, Mean",[3]; [8],53.35 kgf/mm^2
same,"microhardness, rank among all the groups",[3]; 100 μm depth,highest
same,"microhardness, rank among all the groups",[3]; depths combined,highest
same,Diametral tensile strength,[4],60.01 ± 2.70 ^b Mpa
same,DTS compared with the control group,[4],significantly higher DTS than the control group
same,DTS,[4],59.99±1.91 Mpa
same,kind of residual stress generated,[7],compressive residual stress
same,Compressive strength,[5],174.01 ± 11.09 ^c Mpa
same,"compressive strength, rank among all the groups",[5]; in words,highest
